Laboratory results reported in article PMC6952366 (Scientific Reports, 2020).
Several values for one entry are separate records, joined by “and”; a condition that tells them apart may be missing. Identical values can stand only once. Like-named read-outs stand apart in the source and are kept apart here.

Legend:
[1] = pKa determination by acid titration; assay type: physicochemical; details: acid titration in water, Gran plot, 4 replicates
Protocol: The pKa of each compound was measured by acid titration. […] This procedure was repeated 4 times for each compound.

Shaker K+ channel = target: T1, Shaker K+ channel (Drosophila melanogaster, UniProt P08510, DEL6-46); experiment: cell-based; assay type: cell-based, D. melanogaster; details: for δ (fractional distance through the membrane electrical field): Woodhull fit of IC50 vs voltage curves
T1 construct: expressed in transfected cells; host or cells: Xenopus laevis oocytes injected with in vitro transcribed cRNA (cDNA clone from the Bezanilla laboratory)
T1 sequence (P08510 other isoform, or with tags, fused parts or gaps DEL6-46): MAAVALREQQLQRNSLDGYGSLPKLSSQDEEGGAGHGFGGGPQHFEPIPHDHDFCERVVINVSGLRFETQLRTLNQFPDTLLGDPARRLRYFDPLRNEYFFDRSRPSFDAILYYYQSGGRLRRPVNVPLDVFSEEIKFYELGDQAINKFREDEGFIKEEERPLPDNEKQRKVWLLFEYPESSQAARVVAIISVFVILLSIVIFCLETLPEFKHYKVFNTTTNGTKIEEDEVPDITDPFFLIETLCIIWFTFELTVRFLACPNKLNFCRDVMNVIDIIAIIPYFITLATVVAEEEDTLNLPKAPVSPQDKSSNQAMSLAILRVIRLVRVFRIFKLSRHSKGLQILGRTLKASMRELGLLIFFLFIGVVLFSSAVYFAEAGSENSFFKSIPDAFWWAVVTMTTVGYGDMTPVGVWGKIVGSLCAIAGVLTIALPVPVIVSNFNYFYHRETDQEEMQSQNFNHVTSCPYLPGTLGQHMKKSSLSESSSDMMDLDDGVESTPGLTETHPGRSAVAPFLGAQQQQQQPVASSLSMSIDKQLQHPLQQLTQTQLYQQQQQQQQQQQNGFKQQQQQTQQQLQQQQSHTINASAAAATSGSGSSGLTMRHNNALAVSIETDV
Protocol: K^+ currents were measured in Xenopus oocytes expressing the commonly studied voltage-gated K^+ channel Shaker from D. melanogaster. In order to determine the relative blocking capacity, each drug was applied to the same oocyte at increasing concentrations ranging from 1 to 10,000 μM. Then, the relative current was determined as the ratio between the maximal amplitude of the K^+ current in the absence and in the presence of each drug. […] The Hill equation (Eq. 1) was fitted to the dose-response curves and used to calculate the IC50 for each drug at pH 7.4.
A sample of cDNA clone encoding for Shaker voltage-gated K^+ channel from D. melanogaster with inactivation removed[51] was generously provided by the laboratory of Prof. Francisco Bezanilla at The University of Chicago. The DNA was amplified, linearized with Not I enzyme (New England Biolabs, Inc., Ipswich, MA, USA) and transcribed in vitro using the T7 promoter mMESSAGE cRNA kit (Ambion, Austin, Tex., USA).
Shaker channel was heterologously expressed in Xenopus laevis oocytes. Only mature Xenopus laevis frogs (Aquanimals SA de CV, Queretaro, Mexico) were used as oocytes suppliers. A volume of 1−3 mL from the ovary lobes was extracted via survival surgery under anesthesia. All methods involving live animals were performed in accordance with relevant guidelines and regulations and with the approval of the Comité Institucional del Cuidado y Uso de Animales en el Laboratorio (CICUAL-CUCEI-UDG). Subsequently, oocytes were isolated with the treatment of collagenase type II (Worthington Biochemical Corp., NJ, USA) under mechanical agitation. After the isolation with collagenase, each oocyte was injected with 15–25 ng of RNA encoding for the Shaker ion channel and incubated for 8–12 h at 17 °C in a Standard Oocytes Saline (SOS) solution containing (in mM): 100 NaCl, 1 MgCl2, 10 HEPES, 2 KCl and 1.8 CaCl2 with 50 μg/mL gentamycin at pH 7.5.
All chemical compounds for this study were acquired from Sigma-Aldrich (Sigma-Aldrich Co., St. Louis, MO, USA) and Chem-Impex International (Chem-Impex International, Inc. Wood Dael, IL, USA) unless otherwise indicated. Electrophysiology measurements were conducted using the methodology of cut-open oocyte voltage clamp (COVC)[52]. For COVC procedures, the internal recording solution contained (in mM): 120 KOH, 2 EGTA, and 20 HEPES. The external recording solution was composed (in mM) by: 12 KOH, 2 Ca(OH)2, 105 NMDG (N-methyl-D-glucamine)-methylsufonate (MES), and 20 mM HEPES. For measurements carried out at pH of 6.8 and 7.4, the pH of both solutions was adjusted with MES. For measurements carried out at pH = 9.1, HEPES was replaced by 2-(cyclohexylamino)ethanesulfonic acid (CHES).
K^+ currents were recorded in the same oocyte, first in absence (IK) and then in presence of each drug (II). IK was elicited by depolarizing the oocyte membrane with a voltage protocol that consisted in steps of 50 ms from −100 to 50 mV in increments of 10 mV. […] The integrity and stability of each oocyte were continuously monitored throughout the experiment.
Ionic currents were amplified and digitized with the Oocyte Clamp Amplifier CA-1A (Dagan Corporation, Minneapolis, MN, USA) and the USB-1604-HS-2AO Multifunction Card (Measurement Computing, Norton, MA, USA), respectively, and controlled with the GpatchMC64 program (Department of Anesthesiology, UCLA, Los Angeles, CA, USA) via a PC. Data were sampled at 100 kHz and filtered at 10 kHz. All the experiments were performed at room temperature (21–23 °C).
Ion currents recordings were analyzed with Analysis (Department of Anesthesiology, UCLA, Los Angeles, CA, USA) and OriginPro 8 (OriginLab Corporation, Northampton, MA, USA.) programs.
Mean values of data ± standard deviation (s.d.) are given or plotted and the number of experiments is denoted by n. The 95% of confidence interval (IC95) is denoted as [Upper limit-Lower limit]; where Upper limit = 10^(logIC50+s.d) and Lower limit = 10^(logIC50−s.d) .

[2] = Octanol-water partition coefficient (logD) at pH 7.4, modified shake flask method; assay type: physicochemical; details: pH 7.4, 4 replicates
Protocol: The octanol-water partition coefficient (logD) at pH 7.4 was determined using a modified version of the shake flask method. Briefly, PBS (900 µL), 1-octanol (900 µL) and a 10 mg/mL aqueous solution of each compound (2 µL) were added to a 2 mL HPLC vial. The compounds were partitioned between the layers via vortexing and centrifuged at 1,000 g for 1 min to allow for phase separation. A portion (10 µL) was taken from each layer (autoinjector was set up to draw volume at two different heights) and analyzed by HPLC. The relative concentration in each phase was determined by integrating the area under each peak and comparing the ratio of the areas from the octanol and aqueous layers. A calibration curve was performed to ensure that the concentrations detected were within the linear range of the detector. This procedure was repeated 4 times for each compound.

[3] = cited from earlier work
[4] = 0 mV, pH 6.8, Hill fit, read-out: IC50
[5] = 0 mV, pH 7.4, Hill fit, read-out: IC50
[6] = 0 mV, pH 9.1, Hill fit, read-out: IC50
[7] = 40 mV, pH 7.4, Hill equation fit, read-out: IC50
[8] = 1-octanol/PBS, pH 7.4, octanol/water (PBS), read-out: logD
[9] = IC50, 40 mV, pH 7.4, Hill equation fit
[10] = IC50 at V = 0 mV (Woodhull parameter), fit of IC50 vs voltage curves (10 to 50 mV) with Woodhull model, mean ± SD
[11] = IC50 increase with voltage (from lowest to highest voltage), over the voltage values studied, Fig. 4 shows 10 to 50 mV
[12] = fit of IC50 vs voltage curves (10 to 50 mV) with Woodhull model, mean ± SD, read-out: IC50 at V = 0 mV (Woodhull parameter)
[13] = over the voltage values studied, Fig. 4 shows 10 to 50 mV, read-out: IC50 increase with voltage (from lowest to highest voltage)

| Structure (SMILES) | pKa [1] | pKa ([1]; water, read-out: pKa) | IC50 (Shaker K+ channel; [4]) | IC50 (Shaker K+ channel; [5]) | IC50 (Shaker K+ channel; [6]) | IC50 (Shaker K+ channel; [7]) | blocking of the channel (Shaker K+ channel; at 10 mM, pH 7.4, 40 mV) | logD [2, 8] | logD ([2]; octanol/water (PBS)) | IC50 (Shaker K+ channel; IC50, 0 mV, pH 6.8, Hill fit) | IC50 (Shaker K+ channel; IC50, 0 mV, pH 7.4, Hill fit) | IC50 (Shaker K+ channel; IC50, 0 mV, pH 9.1, Hill fit) | IC50 (Shaker K+ channel; [9]) | IC50 (Shaker K+ channel; [10]) | IC50 (Shaker K+ channel; [11]) | δ (fractional distance through the membrane electrical field) (Shaker K+ channel) | pKa [3] | IC50 (Shaker K+ channel; [12]) | IC50 (Shaker K+ channel; [13]) | potency relative to 4AP (Shaker K+ channel; pH 7.4, 40 mV) |
| --- | --- | --- | --- | --- | --- | --- | --- | --- | --- | --- | --- | --- | --- | --- | --- | --- | --- | --- | --- | --- |
| Nc1ccnc(C(F)(F)F)c1 [2CF34AP, 2-trifluoromethyl-4-aminopyridine] | 7.0 ± 0.4 | < 8 | 10400 µM | 11900 µM | 18200 µM | 12800 µM | ~ 50% | 1.48 | 0.906 ± 0.006 |  |  |  |  |  |  |  |  |  |  |  |
| Nc1ccncc1C(F)(F)F [3CF34AP, 3-trifluoromethyl-4-aminopyridine] | 7.17 ± 0.04 | < 8 |  |  |  |  |  | 0.91 | 1.484 ± 0.009 | 249 µM | 690 µM | 2190 µM | 1060 µM | 516 ± 51 µM | 690 to 1150 µM | 0.46 ± 0.10 |  |  |  |  |
| Nc1ccncc1F [3F4AP, 3-fluoro-4-aminopyridine, reference compound] | 7.65 ± 0.15 | < 8 | 82 µM | 160 µM | 185 µM | 244 µM |  | 0.41 | 0.414 ± 0.002 |  |  |  |  |  |  | 0.46 ± 0.10 | 7.6 | 122 ± 4 µM | 160 to 304 µM | comparable to 4AP |
| Cc1cnccc1N [3Me4AP, 3-methyl-4-aminopyridine] | 9.82 ± 0.06 | > 9 |  |  |  |  |  |  | −1.23 and −1.232 ± 0.008 | 66 µM | 39 µM | 15 µM | 40 µM | 21 ± 1 µM | 37 to 50 µM | 0.43 ± 0.10 |  |  |  |  |
| COc1cnccc1N [3MeO4AP, 3-methoxy-4-aminopyridine] | 9.18 ± 0.02 | > 9 | 357 µM | 355 µM | 492 µM | 807 µM |  | -0.76 ± 0.03 |  |  |  |  |  |  |  | 0.56 ± 0.02 |  | 329 ± 17 µM | 310 to 992 µM |  |
| Nc1ccncc1 [4AP, 4-aminopyridine, reference compound] | 9.58 ± 0.07 | > 9 |  |  |  |  |  |  | −1.48 and −1.478 ± 0.014 |  |  |  |  |  |  | 0.41 ± 0.08 |  |  |  |  |
